Test results reported in PMC10139140, “Synthesis of Novel 2-(Cyclopentylamino)thiazol-4(5H)-one Derivatives with Potential Anticancer, Antioxidant, and 11β-HSD Inhibitory Activities” (International Journal of Molecular Sciences, 2023).

What was measured:
[1] = tested on: human pancreatic carcinoma (PANC-1); test: MTS metabolic activity assay, PANC-1 cells; type: cell-based; settings: for viability at 10 µM / viability at 20 µM / viability at 50 µM / viability at 100 µM / viability at 200 µM / viability at 300 µM / viability at 500 µM: Homo sapiens, 72 h, read-out: Cell metabolic activity (MTS), % of untreated control; for viability at 10 µM: PANC-1, 10 µM; for viability at 20 µM: PANC-1, 20 µM; for viability at 50 µM: PANC-1, 50 µM; for viability at 100 µM: PANC-1, 100 µM; for viability at 200 µM: PANC-1, 200 µM; for viability at 300 µM: PANC-1, 300 µM; for viability at 500 µM: PANC-1, 500 µM
In short: (§1)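 Cells seeded at 5 × 10^3 cells/0.32 cm^2 (BJ at 2 × 10^3 cells/0.32 cm^2), left 24 h, then exposed to various compound concentrations for 72 h. MTS added for 3 h in the dark; absorbance read at 590 nm and 620 nm, expressed as % of untreated control (100%).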

glioma (U-118 MG) = test: MTS metabolic activity assay, U-118 MG cells; type: cell-based; settings: 72 h; for viability at 10 µM / viability at 20 µM / viability at 50 µM / viability at 100 µM / viability at 200 µM / viability at 300 µM / viability at 500 µM: Homo sapiens, U-118-MG, U118-MG, read-out: Cell metabolic activity (MTS), % of untreated control
In short: as §1

11β-HSD1 = target: T1, 11β-HSD1 (Homo sapiens, UniProt P28845); test: Inhibition of 11β-HSD1 (cortisone to cortisol, human liver microsomes, cortisol ELISA); type: biochemical
T1 construct: Human liver microsomes were used as a source of 11β-HSD1 enzyme; tissue XenoTech Lot No. 1410013; host or cells: pooled human liver microsomes, mixed gender
T1 sequence (P28845 whole entry): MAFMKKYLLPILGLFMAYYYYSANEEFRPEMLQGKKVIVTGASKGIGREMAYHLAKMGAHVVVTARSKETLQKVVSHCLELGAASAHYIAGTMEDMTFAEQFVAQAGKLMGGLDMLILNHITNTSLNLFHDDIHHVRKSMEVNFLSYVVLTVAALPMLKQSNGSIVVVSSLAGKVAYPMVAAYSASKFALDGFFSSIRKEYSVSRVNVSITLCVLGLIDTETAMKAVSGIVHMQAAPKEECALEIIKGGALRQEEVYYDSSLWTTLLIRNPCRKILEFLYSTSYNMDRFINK
In short: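 Human liver microsomal conversion of cortisone to cortisol, incubated 2.5 h at 37 °C and stopped with 18β-glycyrrhetinic acid. Cortisol was quantified by ELISA against inhibitor-free controls.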

[2] = tested on: human colon carcinoma (Caco-2); test: MTS metabolic activity assay, Caco-2 cells; type: cell-based; settings: 72 h; for cell viability, decreases to: Caco-2, higher concentrations, range given for the most effective substances together; for viability at 10 µM / viability at 20 µM / viability at 50 µM / viability at 100 µM / viability at 200 µM / viability at 300 µM / viability at 500 µM: Homo sapiens, read-out: Cell metabolic activity (MTS), % of untreated control; for viability at 10 µM: Caco-2, 10 µM; for viability at 20 µM: Caco-2, 20 µM; for viability at 50 µM: Caco-2, 50 µM; for viability at 100 µM: Caco-2, 100 µM; for viability at 200 µM: Caco-2, 200 µM; for viability at 300 µM: Caco-2, 300 µM; for viability at 500 µM: Caco-2, 500 µM
In short: as §1

BJ cells = test: MTS metabolic activity assay, BJ cells; type: cell-based; settings: Homo sapiens, 72 h, read-out: Cell metabolic activity (MTS), % of untreated control
In short: as §1

[3] = tested on: skin melanoma (SK-MEL-30); test: MTS metabolic activity assay, SK-MEL-30 cells; type: cell-based; settings: Homo sapiens, 72 h, read-out: Cell metabolic activity (MTS), % of untreated control; for viability at 10 µM: SK-MEL-30, 10 µM; for viability at 20 µM: SK-MEL-30, 20 µM; for viability at 50 µM: SK-MEL-30, 50 µM; for viability at 100 µM: SK-MEL-30, 100 µM; for viability at 200 µM: SK-MEL-30, 200 µM; for viability at 300 µM: SK-MEL-30, 300 µM; for viability at 500 µM: SK-MEL-30, 500 µM
In short: as §1

[4] = tested on: human breast carcinoma (MDA-MB-231); test: MTS metabolic activity assay, MDA-MB-231 cells; type: cell-based; settings: 72 h; for viability at 10 µM / viability at 20 µM / viability at 50 µM / viability at 100 µM / viability at 200 µM / viability at 300 µM / viability at 500 µM: Homo sapiens, read-out: Cell metabolic activity (MTS), % of untreated control; for viability at 10 µM: MDA-MB-231, 10 µM; for viability at 20 µM: MDA-MB-231, 20 µM; for viability at 50 µM: MDA-MB-231, 50 µM; for viability at 100 µM: MDA-MB-231, 100 µM; for viability at 200 µM: MDA-MB-231, 200 µM; for viability at 300 µM: MDA-MB-231, 300 µM; for viability at 500 µM: MDA-MB-231, 500 µM
In short: as §1

11β-HSD2 = target: T2, 11β-HSD2 (Homo sapiens, UniProt P80365); test: Inhibition of 11β-HSD2 (cortisol to cortisone, human microsomes, cortisol ELISA); type: biochemical; settings: 2.5 h, 37 °C
T2 construct: Human liver microsomes were used as a source of 11β-HSD2 enzyme; tissue XenoTech Lot No. 1710160; host or cells: human kidney microsomes, mixed gender (method text says human liver microsomes)
T2 sequence (P80365 1-405): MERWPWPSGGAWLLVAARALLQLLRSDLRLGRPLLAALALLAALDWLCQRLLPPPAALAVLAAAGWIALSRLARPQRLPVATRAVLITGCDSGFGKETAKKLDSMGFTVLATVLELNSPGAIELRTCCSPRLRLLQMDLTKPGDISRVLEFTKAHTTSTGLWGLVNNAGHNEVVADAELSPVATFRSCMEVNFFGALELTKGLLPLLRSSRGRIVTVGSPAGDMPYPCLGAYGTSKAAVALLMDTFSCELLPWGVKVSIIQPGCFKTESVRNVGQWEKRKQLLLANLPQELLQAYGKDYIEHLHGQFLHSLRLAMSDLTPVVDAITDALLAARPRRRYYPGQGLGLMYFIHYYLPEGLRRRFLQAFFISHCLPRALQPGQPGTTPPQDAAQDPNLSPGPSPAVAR
Procedure: The resulting solution with a final volume of 100 µL was incubated for 2.5 h at 37 °C. […] The level of unreacted cortisol was measured by a commercially available ELISA kit.

**Q.** What does the source list for `O=C1N=C(NC2CCCC2)SC12CCCCC2` [Compound 3h, 2-(cyclopentylamino)-1-thia-3-azaspiro[4.5]dec-2-en-4-one]?
**A.** viability at 10 µM [1]: 102%; viability at 20 µM [1]: 96%; viability at 50 µM [1]: 105%; viability at 100 µM [1]: 109%; viability at 200 µM [1]: 117%; viability at 300 µM [1]: 127%; viability at 500 µM [1]: 98.4%; highest increase in proliferation (cell metabolic activity) ([1]; PANC-1, 72 h, range given for the named substances together): 115 to 144%; viability at 10 µM (glioma (U-118 MG)): 111%; viability at 20 µM (glioma (U-118 MG)): 111%; viability at 50 µM (glioma (U-118 MG)): 116%; viability at 100 µM (glioma (U-118 MG)): 116%; viability at 200 µM (glioma (U-118 MG)): 121%; viability at 300 µM (glioma (U-118 MG)): 121%; viability at 500 µM (glioma (U-118 MG)): 99.9%; highest increase in proliferation (cell metabolic activity) (glioma (U-118 MG); U-118 MG, range given for the named substances together): 115 to 144%; IC50 (11β-HSD1): 70 ± 5 nM; % of 11β-HSD1 Inhibition 10 μM (11β-HSD1; 10 µM, 2.5 h, 37 °C): 90.49 ± 1.31%; inhibition at 10 µM (11β-HSD1; 10 µM, 2.5 h, 37 °C): 90%; cell viability, decreases to [2]: 20–65%; viability at 10 µM [2]: 96.3%; viability at 20 µM [2]: 94.2%; viability at 50 µM [2]: 99.9%; viability at 100 µM [2]: 96.2%; viability at 200 µM [2]: 95.6%; viability at 300 µM [2]: 82.6%; viability at 500 µM [2]: 65.5%; viability at 10 µM (BJ cells): 108%; viability at 20 µM (BJ cells): 106%; viability at 50 µM (BJ cells): 111%; viability at 100 µM (BJ cells): 118%; viability at 200 µM (BJ cells): 122%; viability at 300 µM (BJ cells): 115%; viability at 500 µM (BJ cells): 79%; viability at 10 µM [3]: 96.1%; viability at 20 µM [3]: 100%; viability at 50 µM [3]: 102%; viability at 100 µM [3]: 105%; viability at 200 µM [3]: 109%; viability at 300 µM [3]: 106%; viability at 500 µM [3]: 80.8%; viability at 10 µM [4]: 91.6%; viability at 20 µM [4]: 92.7%; viability at 50 µM [4]: 92.1%; viability at 100 µM [4]: 93.5%; viability at 200 µM [4]: 77.1%; viability at 300 µM [4]: 64.6%; viability at 500 µM [4]: 45.6%; cell viability, decreases to ([4]; MDA-MB-231, higher concentrations, range given for the most effective substances together): 20–65%; inhibition at 10 µM (11β-HSD2): < 43%

**Q.** For `O=C1N=C(NC2CCCC2)SC12CCC2` [Compound 3i, 6-(cyclopentylamino)-5-thia-7-azaspiro[3.4]oct-6-en-8-one], which viability at 10 µM [1] is on record?
**A.** 95.4%

**Q.** What about the viability at 20 µM [1] of the same compound?
**A.** 93.3%

**Q.** And the viability at 50 µM [1]?
**A.** 97.3%

**Q.** And the viability at 100 µM [1]?
**A.** 91.4%

**Q.** And the viability at 200 µM [1]?
**A.** 91.2%

**Q.** What about the viability at 300 µM [1] of the same compound?
**A.** 79.7%

**Q.** And the viability at 500 µM [1]?
**A.** 66.6%

**Q.** And the viability at 10 µM (glioma (U-118 MG))?
**A.** 107%

**Q.** What about the viability at 20 µM (glioma (U-118 MG)) of the same compound?
**A.** 108%

**Q.** What about the viability at 50 µM (glioma (U-118 MG)) of the same compound?
**A.** 111%

**Q.** And the viability at 100 µM (glioma (U-118 MG))?
**A.** 109%

**Q.** What about the viability at 200 µM (glioma (U-118 MG)) of the same compound?
**A.** 112%

**Q.** And the viability at 300 µM (glioma (U-118 MG))?
**A.** 109%

**Q.** What about the viability at 500 µM (glioma (U-118 MG)) of the same compound?
**A.** 108%

**Q.** And the IC50 (11β-HSD1)?
**A.** 1550 ± 100 nM

**Q.** And the inhibition at 10 µM (11β-HSD1; 10 µM, 2.5 h, 37 °C)?
**A.** 71.2 ± 4.77%

**Q.** What about the “cell viability, decreases to” value [2] of the same compound?
**A.** 20–65%

**Q.** What about the viability at 10 µM [2] of the same compound?
**A.** 92.2%

**Q.** And the viability at 20 µM [2]?
**A.** 91.2%

**Q.** What about the viability at 50 µM [2] of the same compound?
**A.** 92.9%

**Q.** And the viability at 100 µM [2]?
**A.** 82.5%

**Q.** What about the viability at 200 µM [2] of the same compound?
**A.** 77.5%

**Q.** What about the viability at 300 µM [2] of the same compound?
**A.** 69.8%

**Q.** What about the viability at 500 µM [2] of the same compound?
**A.** 61.5%

**Q.** What about the viability at 10 µM (BJ cells) of the same compound?
**A.** 102%

**Q.** And the viability at 20 µM (BJ cells)?
**A.** 104%

**Q.** What about the viability at 50 µM (BJ cells) of the same compound?
**A.** 105%

**Q.** What about the viability at 100 µM (BJ cells) of the same compound?
**A.** 111%

**Q.** And the viability at 200 µM (BJ cells)?
**A.** 116%

**Q.** And the viability at 300 µM (BJ cells)?
**A.** 121%

**Q.** What about the viability at 500 µM (BJ cells) of the same compound?
**A.** 115%

**Q.** What about the viability at 10 µM [3] of the same compound?
**A.** 88.1%

**Q.** What about the viability at 20 µM [3] of the same compound?
**A.** 94%

**Q.** And the viability at 50 µM [3]?
**A.** 97.3%

**Q.** And the viability at 100 µM [3]?
**A.** 99%

**Q.** And the viability at 200 µM [3]?
**A.** 101%

**Q.** What about the viability at 300 µM [3] of the same compound?
**A.** 102%

**Q.** And the viability at 500 µM [3]?
**A.** 103%

**Q.** What about the viability at 10 µM [4] of the same compound?
**A.** 87.2%

**Q.** What about the viability at 20 µM [4] of the same compound?
**A.** 91.2%

**Q.** What about the viability at 50 µM [4] of the same compound?
**A.** 89.6%

**Q.** And the viability at 100 µM [4]?
**A.** 85.1%

**Q.** And the viability at 200 µM [4]?
**A.** 72.5%

**Q.** What about the viability at 300 µM [4] of the same compound?
**A.** 69.3%

**Q.** What about the viability at 500 µM [4] of the same compound?
**A.** 58.7%

**Q.** What about the inhibition at 10 µM (11β-HSD2) of the same compound?
**A.** 46.3 ± 1.22%
